Test results reported in patent US20100310574A1, “METHODS AND COMPOSITIONS FOR THE TREATMENT AND DIAGNOSIS OF STATIN-INDUCED MYOPATHY” (Beth Israel Deaconess Medical Center, priority 2007, published 2010).
“Also recorded” adds a separate entry of the source.

Assays:
[1] = Clinical data (CK) of statin-treated patients who gave muscle biopsies; format: in vivo, human; details: patient with muscle pain/damage concomitantly treated with the statin; one patient per line
Procedure: The atrogin-1 mRNA levels were measured in 17 human quadriceps muscle biopsies from five patients undergoing knee replacements (controls), from four patients with muscle pain but not being treated with statins, and from eight patients with muscle pain/damage concomitantly being treated with statins (the table below).
Muscle biopsies: Muscle was obtained from three groups of patients whose characteristics are detailed in the above table. The statin-treated group included four subjects with statin-induced myopathy and 4 with statin-induced rhabdomyolysis, as commonly defined (Antons et al., Am. J. Med. 119:400-409, 2006). The non-statin myopathy group included four statin-naïve subjects with undefined myopathy. Both of these groups underwent percutaneous muscle biopsies of the vastus lateralis muscle using a Bergstrom needle. The control group included five statin-naïve subjects who volunteered muscle at the time of knee arthroplasty. Muscle from subjects in all three groups was snap frozen in liquid nitrogen for subsequent analysis. All subjects signed an IRB-approved consent form.

[2] = before withdrawal in August 2001; cited from earlier work
[3] = system: phosphor-Akt, phosphor-FoxO3, and phosphor-p70S6K; test: Phosphorylated Akt/FoxO3/p70S6K in C2C12 myotubes (immunoblot); format: cell-based, mouse; details: 1, 2.5 or 5 μM, 24 hours
Procedure: Western Blotting Cultured cells after treatment were collected at specific times and solubilized in RIPA lysis buffer (50 mM Tris-HCl, pH 7.4; 150 mM NaCl, 1% NP-40, 0.5% sodium deoxycholate, 0.1% SDS (Boston Bioproducts, Boston Mass.), protease (Roche) and phosphatase (Sigma) inhibitor cocktail). Proteins were separated by SDS-PAGE, transferred to PVDF membranes and visualized by Western blotting using alkaline phosphatase-based CDP-star chemiluminescent detection according to manufacturer's protocol (Applied Biosystems, Bedford, Mass.).
(§1) The effect of lovastatin on FoxO-dependent activation of the atrogin-1 promoter in zebrafish embryos was also examined. Embryos were injected with a proximal fragment of the atrogin-1 promoter linked to luciferase or the same fragment with the FoxO site mutated (Sandri et al., Cell 117:399-412, 2004). Lovastatin (0.5 μM) stimulated the reporter luciferase activity more than 7-fold, while stimulating the FoxO-less reporter only 3-fold (FIG. 14B). […] Since lovastatin treatment still lead to a small amount of luciferase activity even in the absence of FoxO binding sites in the atrogin-1 promoter-reporter, additional signaling pathways may also be important in mediating the effects of statins on atrogin-1 expression in muscle.

[4] = system: zebrafish atrogin-1; test: Atrogin-1 mRNA and protein expression in zebrafish embryos; format: in vivo, Danio rerio; details: lovastatin treatment
Procedure: (§2) Zebrafish lines and maintenance: Adult zebrafish (Danio rerio) were maintained as described under standard laboratory conditions at 28.5° C. in a 14 h light/10 h dark cycle (Westerfield, “The zebrafish book: a guide for the laboratory use of zebrafish Danio (Brachydanio) rerio,” Institute of Neuroscience, University of Oregon, Eugene, Oreg., 1993). Developmental stages were determined by embryo morphology and hours post fertilization (hpf) (Kimmel et al., Dev. Dyn. 203:253-310, 1995). To examine the effects of statin, the embryos at 20-24 hpf were immersed in the embryonic water ([…], 170 μM KCl, 330 μM CaCl2, and 330 μM MgSO4) at a concentration of 0.005-10 μM lovastatin (Mevinolin; Sigma, St. Louis, Mo.) including 0.003% 1-phenyl-2-thiourea (Sigma) to inhibit pigmentation in 24 well plate. After 32 hpf, the embryos were fixed by 4% paraformaldehyde in PBS.
Western blotting: Zebrafish embryos were homogenized in SDS sample buffer (30 embryos/30 μl of sample buffer) with microfuge pestle until the lysate became uniform in consistency and there was no longer stringy inside. The lysate was boiled for 5 minutes and centrifuged supernatant was processed for Western blotting (Hanai et al., J. Cell Biol. 158:529-539, 2002).

[5] = system: atrogin-1 mRNA; test: Atrogin-1 mRNA in C2C12 myocytes by real time PCR; format: cell-based, mouse; details: 10 μM
Procedure: Quantitative PCR: Atrogin-1 mRNA levels were determined by real-time PCR using the Applied Biosystems® 7500 real-time PCR analyzer according to the method recently described by others (Okuno et al., Blood 100:4420-4426, 2002, and Yang et al., J. Cell Biochem. 94:1058-1067, 2005). Multiplexed amplification reactions were performed using 18S rRNA as an endogenous control (18S rRNA primers/VIC-labeled probe Applied Biosystems #4310893E) using the TaqMan One Step PCR Master Mix reagents Kit (#4309169, Applied Biosystems). The following settings were used: Stage 1 (reverse transcription): 48° C. for 30 min; Stage 2 (denaturation): 95° C. for 10 min; and Stage 3 (PCR): 95° C. for 15 sec and 60° C. for 60 sec for 40 cycles. […] Fluorescence data were analyzed by SDS1.7 software (Applied Biosykems). […] All RNA samples were analyzed in triplicate, with the mean value used in subsequent analyses.
Cell Culture: Mouse myoblast cell line C2C12 was purchased from ATCC (ATCC, Manassas, Va.) and maintained in DMEM (Mediatech, Herndon, Va.) containing 10% fetal bovine serum (Hyclone, Logan, Utah) and penicillin (100U) and streptomycin (50 ug/ml; Invitrogen, Grand Island, N.Y.). […]
Quantitative PCR: Performed as described above.

[6] = system: atrogin-1 wildtype primary myotubes; test: Myotube size, wildtype primary mouse myotubes; format: cell-based; details: control (wildtype) cultures, two days of exposure
[7] = system: functional mitochondria; test: MitoTracker staining and FACS of cells from zebrafish embryos; format: in vivo, Danio rerio; details: lovastatin 0.5 or 1.0 μM
Procedure: Mitochondrial staining and FACS analysis: Embryos were treated with lovastatin (0, 0.5, 1.0 μM at 20-32 hpf) or treated with the combination of lovastatin (0.5 μM) following PGC-1α (or vehicle) cDNA injection (100 pg/embryo at the one-cell stage). 1-Phenyl-2-thiourea (0.003%; Sigma) was added at 20 hpf. After phenotypes were observed, 100 embryos from each condition were decholionated by protease and homogenized for 3-5 minutes in 0.9× phosphate buffered saline (PBS)/10% fetal bovine serum (FBS), then centrifuged at 3000 rpm for 5 minutes, digested with trypsin/EDTA and dispersed at room temperature. After adding 1 mL of 0.9×PBS/10% FBS, the dispersed cells were filtered ([…]) and washed twice with 0.9×PBS/10% FBS. The cells were incubated in 100 nM MitoTracker Red CMXRos (Invitrogen) in 0.9×PBS/10% FBS for 15 minutes in the dark. The cells were washed twice in 0.9×PBS/10% FBS and subjected to […] (FACS) analysis. EPICS XL (Beckman Coulter) was used for the fluorescence detection (absorption wavelength: 578 nm; emission wavelength: 599 nm) and data was analyzed with Expo32ADC software. Ten thousand cells were counted for each treatment condition.

[8] = system: atrogin-1 promoter; test: Atrogin-1 promoter luciferase reporter in zebrafish embryos; format: in vivo, Danio rerio; details: 0.5 μM
Procedure: as §1

[9] = system: atrogin-1 (−/−) myotubes; test: Myotube size, atrogin-1 (-/-) primary mouse myotubes; format: cell-based; details: 0.25 and 1.0 μM
Procedure: (§3) Myotube Fiber Size: Size was quantified by measuring a total of 200 tube diameters as described by Sandri et al. (supra). Briefly, muscle fiber size from four random fields at 100 magnification was measured using IMAGE software (Scion, Frederick, Md.). All data were expressed in Mean±S.E.M. Comparisons were made by using the Student's T-test, with p<0.05 being considered statistically significant.
Cell Culture: Primary mouse myoblasts from atrogin-1 null mice (Regeneron, Tarrytown N.Y.) were isolated as follows: muscle was removed from the hind limbs of two-week old mice. After treatment with 0.1% collagenase D and Dispase II (Roche, Indianapolis, Ind.), the isolated cells were plated on collagen (Type I, Roche, Indianapolis, Ind.)-coated dishes. Myoblasts were subsequently enriched and cultured in F-10 nutrient medium with 20% fetal calf serum and 2.5 ng/ml bFGF (Invitrogen, Grand Island, N.Y.). Myotubes were induced in differentiation medium. All media contained 1× Primocin (InvivoGen, San Diego, Calif.). The cultures were maintained at 37° C., under 5% and 8% CO2 humidified air atmosphere for myoblasts and myotubes, respectively. Cultures were ready to use in assays on day 2 in differentiation medium when the myotubes had formed and were contracting.

[10] = system: differentiated C2C12 mouse myocytes; test: C2C12 myotube morphology and diameter; format: cell-based
From the text: The effect of statins on muscle cells was studied by treating differentiated C2C12 mouse myocytes with various concentrations of lovastatin. […] The reduction of myotube size was quantitated by measurement of myotube thickness. This effect was clearly visible at low lovastatin concentrations, in the range of those typically found in patients administered with this medication (Pan et al., J. Clin. Pharmacol. 30:797-801, 2002, and Hostein et al., Cancer Chemother. Pharmacol. 57:155-164, 2006).
Cell Culture: Mouse myoblast cell line C2C12 was purchased from ATCC (ATCC, Manassas, Va.) and maintained in DMEM (Mediatech, Herndon, Va.) containing 10% fetal bovine serum (Hyclone, Logan, Utah) and penicillin (100U) and streptomycin (50 ug/ml; Invitrogen, Grand Island, N.Y.). When C2C12 cells reach to 90% confluence, medium was replaced with differentiation medium of DMEM supplemented with 2% horse serum (ATCC, Manassas, Va.) to induce myotube formation. Cells were used for experiments in 4-5 days after differentiation. Lovastatin (>98% purity) (mevinolin; Sigma, St. Louis, Mo.) was prepared as a 50 mM stock solution in DMSO as reagent vehicle, further diluted in DMSO, and added into the medium. The final volume DMSO in medium is not more than 0.125%, which there is not obvious cytotoxicity. Equal volume of reagent vehicle was used for all experiments and reagent vehicle only serviced as controls. Each experiment was performed at least three times.
as §3

[11] = system: C2C12 myotubes; test: Proteolytic rate in C2C12 myotubes (3H-tyrosine release); format: cell-based, mouse; details: compared with control cultures
Procedure: Measurement of Proteolytic Rate: Differentiated C2C12 myotubes were incubated with ^3H-tyrosine (5 μCi/mL media) for 20 hours to label cell proteins, and switched to medium containing 2 mM unlabeled tyrosine, vehicle, lovastatin, or dexamethasone for another 20 hours. After media replacement, an aliquot of medium was collected once per hour for 4 hours. The collected media was treated with TCA (10% w/v final concentration) to precipitate protein. Since the high concentration of unlabeled tyrosine in the media prevents re-incorporation of ^3H-tyrosine into new protein, the radioactivity in the supernatant represent degraded protein from the pool of prelabeled, intracellular, long-lived proteins. Proteolytic rate was defined as the percentage of released radioactivity per hour calculated from the period of 20 hours to 24 hours of lovastatin or dexamethasone treatment, when ^3H-tyrosine release is linear over time. These rates were compared with proteolytic rates in parallel cultures treated with vehicle alone. All measurements were done in triplicate and then independently repeated at least twice.

[12] = system: atrogin-1 protein; test: Atrogin-1 protein in C2C12 myotubes by Western blotting; format: cell-based, mouse; details: vs non-treated control cells
Procedure: Western Blotting Cultured cells after treatment were collected at specific times and solubilized in RIPA lysis buffer (50 mM Tris-HCl, pH 7.4; 150 mM NaCl, 1% NP-40, 0.5% sodium deoxycholate, 0.1% SDS (Boston Bioproducts, Boston Mass.), protease (Roche) and phosphatase (Sigma) inhibitor cocktail). […]

[13] = system: Zebrafish embryos; test: Zebrafish embryo muscle fiber damage (myosin heavy chain staining); format: in vivo, Danio rerio
Procedure: Zebrafish embryos were treated with lovastatin from 20 hpf to 32 hpf at different concentrations (0-5 μM).
as §2
Antibody staining: Whole zebrafish staining: Zebrafish embryos were fixed by 4% paraformaldehyde in PBS overnight. After fixation, the embryos were washed by PBS, stored for at least 1 h at −20° C. in methanol, and permeabilized for 30 min at −20° C. in acetone. Embryos were incubated with blocking buffer (1% BSA, 0.1% Tween-20 in PBS), and incubated with diluted primary antibody, anti-slow twitch myosin F59 (1: 200; Developmental Studies Hybridoma Bank (DSHB), Department of Biological Sciences, University of Iowa, Iowa City, Iowa 52242) (Crow and Stockdale, Dev. Biol. 118:333-342, 1986; and Devoto et al., Development 122:3371-3380, 1996) in blocking solution for overnight at 4° C. Staining was detected by using goat anti-mouse TRITC secondary antibody (1:200; Southern Biotechnology Associates, Inc.) in blocking solution for 4 h at RT (Birely et al., Dev. Biol. 280:162-176, 2005). Cross-sectional staining: Embryos were fixed overnight in 4% paraformaldehyde (PFA) and cryoprotected by the overnight incubation with increasing concentrations of sucrose (up to 30%). Samples were embedded in OCT compound and then equilibrated to −80° C. Sections (10 μm thick) were collected on SuperFrost/Plus slides and dried. Sections were rehydrated in PBS and blocked for 1 h in blocking buffer (1% BSA, 0.1% Tween in PBS). Sections were incubated overnight at 4° C. with primary antibody diluted in blocking buffer. Sections were stained with antibody as above.

CCC(C)(C)C(=O)O[C@H]1C[C@@H](C)C=C2C=C[C@H](C)[C@H](CC[C@@H]3C[C@@H](O)CC(=O)O3)[C@H]21 [simvastatin]
CK (clinical data) [1]: Weakness, CK 51,080; also recorded: Weakness, CK 8,264; also recorded: Weakness, CK 39,000; also recorded: Muscle pain and weakness, CK 62; also recorded: Muscle pain and weakness, CK 649

CC(C)c1c(C(=O)Nc2ccccc2)c(-c2ccccc2)c(-c2ccc(F)cc2)n1CC[C@@H](O)C[C@@H](O)CC(=O)O [atorvastatin]
CK (clinical data) [1]: Muscle pain and weakness, CK 47; also recorded: Muscle pain and weakness, CK 73

COCc1c(C(C)C)nc(C(C)C)c(/C=C/[C@@H](O)C[C@@H](O)CC(=O)O)c1-c1ccc(F)cc1 [cerivastatin]
rhabdomyolysis-related deaths [2]: approximately 100

CC[C@H](C)C(=O)O[C@H]1C[C@@H](C)C=C2C=C[C@H](C)[C@H](CC[C@@H]3C[C@@H](O)CC(=O)O3)[C@H]21 [lovastatin]
CK (clinical data) [1]: Weakness, CK 932
phosphorylated signaling intermediates [3]: dose-dependent reduction
zebrafish atrogin-1 mRNA and protein level [4]: clearly and dose-dependently elevated
atrogin-1 mRNA ([5]; 6 hours): significantly increased
atrogin-1 mRNA induction ([5]; 36 hours): ≤ 6 fold
decrease of tube diameter [6]: ≤ 50%
MitoTracker fluorescence intensity [7]: shifted to the left
stimulation of reporter luciferase activity ([8]; FoxO-less (FoxO site mutated) reporter): 3 fold
stimulation of reporter luciferase activity ([8]; atrogin-1 promoter fragment with FoxO site): more than 7 fold
change in myotube size [9]: Little change in myotube size
loss of myotubes ([10]; by 5 days): almost complete loss of myotubes
myotube morphology / thickness ([10]; increasing concentrations (0-10 μM) vs vehicle): myotubes became progressively thinner
treatment time after which morphological changes were visible ([10]; myotube cultures): 24 hours
increase in the rate of bulk muscle proteolysis [11]: 5-10%
atrogin-1 induction (protein) ([12]; 1.0 μM, 48 hours): about 1.5 fold
atrogin-1 induction (protein) ([12]; 10 μM): about 2.5 fold
muscle phenotype ([13]; 0-5 μM, 20 hpf to 32 hpf): clear dose-dependent muscle phenotypes
embryos with class 1 defects ([13]; 0.05 μM): more than 50%
embryos with class 3 changes ([13]; 5 μM): over 60%
concentration giving class 1 changes (bowing, gap formation, fiber disruption) ([13]; 20 hpf to 32 hpf): 25 to 50 nM
concentration giving class 2 changes (fiber thinning, attenuated MHC staining) ([13]; 20 hpf to 32 hpf): 50 to 500 nM
concentration giving class 3 changes (irregular somite boundaries) ([13]; 20 hpf to 32 hpf): 1000 to 5000 nM
